Test results published in patent US20240287138A1, “CYCLIC PEPTIDES FOR INHIBITING TNF RECEPTOR 1 ACTIVITY” (Merck Sharp & Dohme LLC, priority 2023, published 2024).
Numbered stars: 1 amine (or outer) side, 2 acyl side, 3 side chain; on linkers, the order of the positions; unused ones are H or OH. Bridge positions count the residues as written; N and C are the ends. Square brackets hold non-standard residues; d marks the D form. Peptide text beside a SMILES is read from it. Trp(βS-Me,7-OMe) = COc1cccc2c([C@H](C)[C@H](N)C(=O)O)c[nH]c12; Morpholine(3S-CO,6,6-Me2) = CC1(C)CN[C@H](C(=O)O)CO1; Trp(βS-Me) = C[C@@H](c1c[nH]c2ccccc12)[C@H](N)C(=O)O; Trp(7-CN) = N#Cc1cccc2c(C[C@H](N)C(=O)O)c[nH]c12; Trp(7-Cl) = N[C@@H](Cc1c[nH]c2c(Cl)cccc12)C(=O)O; Phe(3-CONH2) = NC(=O)c1cccc(C[C@H](N)C(=O)O)c1; Phe(4-CONH2) = NC(=O)c1ccc(C[C@H](N)C(=O)O)cc1; Phe(4-COOH) = N[C@@H](Cc1ccc(C(=O)O)cc1)C(=O)O; Trp(7-aza) = N[C@@H](Cc1c[nH]c2ncccc12)C(=O)O; Phe(4-CH2NH2) = NCc1ccc(C[C@H](N)C(=O)O)cc1; X23 = N[C@@H]1CCN([*:1])[C@H](C(=O)[*:2])C1; Pip(5R-OH) = O=C(O)[C@@H]1CC[C@@H](O)CN1; X1 = O=C([C@@H]1CC[C@H](N[*:1])C1)[*:2]; Nle(5,5-F2) = CC(F)(F)CC[C@H](N)C(=O)O; 2Nal = N[C@@H](Cc1ccc2ccccc2c1)C(=O)O; Pip(4-aza) = O=C(O)[C@@H]1CNCCN1; 4Pal = N[C@@H](Cc1ccncc1)C(=O)O; NMeE = CN[C@@H](CCC(=O)O)C(=O)O; dHyp = O=C(O)[C@H]1C[C@H](O)CN1; Cit = NC(=O)NCCC[C@H](N)C(=O)O; NEtAla = CCN[C@@H](C)C(=O)O; Pip = O=C(O)[C@@H]1CCCCN1; αMeS = C[C@](N)(CO)C(=O)O; Nle = CCCC[C@H](N)C(=O)O; Sar = CNCC(=O)O

Molecular target: T1, human soluble TNFR1 (sTNFR1) (Homo sapiens, UniProt P19438)
T1 construct: made in house; host or cells: Sf21 (baculovirus)
T1 sequence (P19438 with tags, fused parts or gaps): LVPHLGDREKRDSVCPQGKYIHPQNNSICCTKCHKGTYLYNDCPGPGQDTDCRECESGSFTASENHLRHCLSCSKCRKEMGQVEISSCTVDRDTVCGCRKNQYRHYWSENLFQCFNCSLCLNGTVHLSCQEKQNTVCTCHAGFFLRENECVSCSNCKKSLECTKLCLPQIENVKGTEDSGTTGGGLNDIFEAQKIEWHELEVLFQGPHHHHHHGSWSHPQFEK
Experiment: Human sTNFR1-peptide displacement assay (LanthaScreen Eu TR-FRET binding assay)
Details: not given
How it was run: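 Readout is the 665/615 nm TR-FRET ratio (Eu anti-His donor, streptavidin-Alexa647 acceptor), normalized to DMSO and saturating displacer, fit by Morrison-based five-parameter logistic for Kd^app. His-tagged sTNFR1 (1-211) prebound to 100 nM biotinylated peptide SEQ ID NO.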

Row | SMILES | Kd [pM]
1 | CCCC[C@@H]1NC(=O)[C@@H]2CC[C@@H](C2)NC(=O)[C@H]([C@@H](C)c2c[nH]c3c(OC)cccc23)NC(=O)CN(C)C(=O)[C@H](Cc2ccc(CN)cc2)NC(=O)[C@H](Cc2ccc(C(=O)O)cc2)NC(=O)[C@](C)(CO)NC(=O)[C@H](Cc2c[nH]c3c(Cl)cccc23)NC(=O)[C@H](Cc2ccncc2)NC(=O)[C@H](CC(N)=O)NC(=O)[C@H](CCC(=O)O)N(C)C(=O)[C@H](Cc2c[nH]c3ccccc23)NC(=O)[C@@H]2CNCCN2C(=O)[C@H](Cc2ccncc2)NC1=O [SEQ ID NO. 269] (cyclo([4Pal][Trp(7-Cl)][αMeS][Phe(4-COOH)][Phe(4-CH2NH2)][Sar][Trp(βS-Me,7-OMe)][X1][Nle][4Pal][Pip(4-aza)]W[NMeE]N)) | 80
2 | CCCC[C@@H]1NC(=O)CSC[C@@H](C(N)=O)NC(=O)[C@H]([C@@H](C)c2c[nH]c3c(OC)cccc23)NC(=O)CN(C)C(=O)[C@H](Cc2ccc(O)cc2)NC(=O)[C@H](Cc2ccc(C(=O)O)cc2)NC(=O)[C@](C)(CO)NC(=O)[C@H](Cc2c[nH]c3c(Cl)cccc23)NC(=O)[C@H](Cc2ccncc2)NC(=O)[C@H](CC(N)=O)NC(=O)[C@H](CCC(=O)O)N(C)C(=O)[C@H](Cc2c[nH]c3ccccc23)NC(=O)[C@@H]2C[C@H](N)CCN2C(=O)[C@H](Cc2ccncc2)NC1=O [SEQ ID NO. 271] ({CH2CO}-[Nle][4Pal][X23]W[NMeE]N[4Pal][Trp(7-Cl)][αMeS][Phe(4-COOH)]Y[Sar][Trp(βS-Me,7-OMe)]C-NH2; thioether N-14) | 950
3 | COc1cccc2c([C@H](C)[C@@H]3NC(=O)CN(C)C(=O)[C@H](Cc4ccc(O)cc4)NC(=O)[C@H](Cc4ccc(C(=O)O)cc4)NC(=O)[C@](C)(CO)NC(=O)[C@H](Cc4c[nH]c5c(Cl)cccc45)NC(=O)[C@H](Cc4ccncc4)NC(=O)[C@H](CC(N)=O)NC(=O)[C@H](CCC(=O)O)N(C)C(=O)[C@H](Cc4c[nH]c5ccccc45)NC(=O)[C@@H]4CNCCN4C(=O)[C@H](Cc4ccncc4)NC(=O)[C@H](CCC(C)(F)F)NC(=O)[C@@H]4CC[C@@H](C4)NC3=O)c[nH]c12 [SEQ ID NO. 275] (cyclo([4Pal][Trp(7-Cl)][αMeS][Phe(4-COOH)]Y[Sar][Trp(βS-Me,7-OMe)][X1][Nle(5,5-F2)][4Pal][Pip(4-aza)]W[NMeE]N)) | 360

Same assay, conditions: displacement of biotinylated peptide SEQ ID NO. 1 from sTNFR1; 20 point titration, 5-parameter fit based on Morrison equation (tight binding); read-out: TR-FRET Kd^app

Row | SMILES | Kd [pM]
4 | CCCC[C@@H]1NC(=O)CSC[C@@H](C(N)=O)NC(=O)[C@H]([C@@H](C)c2c[nH]c3c(OC)cccc23)NC(=O)CN(C)C(=O)[C@H](Cc2ccc(O)cc2)NC(=O)[C@H](Cc2ccc(C(=O)O)cc2)NC(=O)[C@](C)(CO)NC(=O)[C@H](Cc2c[nH]c3c(Cl)cccc23)NC(=O)[C@H](Cc2ccncc2)NC(=O)[C@H](CC(N)=O)NC(=O)[C@H](C)N(CC)C(=O)[C@H](Cc2c[nH]c3ccccc23)NC(=O)[C@@H]2COC(C)(C)CN2C(=O)[C@H](Cc2ccncc2)NC1=O [SEQ ID NO. 183] ({CH2CO}-[Nle][4Pal][Morpholine(3S-CO,6,6-Me2)]W[NEtAla]N[4Pal][Trp(7-Cl)][αMeS][Phe(4-COOH)]Y[Sar][Trp(βS-Me,7-OMe)]C-NH2; thioether N-14) | 170
5 | CCCC[C@@H]1NC(=O)[C@@H]2CC[C@@H](C2)NC(=O)[C@H]([C@@H](C)c2c[nH]c3c(OC)cccc23)NC(=O)CN(C)C(=O)[C@H](Cc2ccc(C(N)=O)cc2)NC(=O)[C@H](Cc2ccc(C(N)=O)cc2)NC(=O)[C@](C)(CO)NC(=O)[C@H](Cc2c[nH]c3c(Cl)cccc23)NC(=O)[C@H](Cc2ccc(C(=O)O)cc2)NC(=O)[C@H](CC(N)=O)NC(=O)[C@H]2C[C@H](O)CN2C(=O)[C@H](Cc2c[nH]c3ccccc23)NC(=O)[C@@H]2CC[C@@H](O)CN2C(=O)[C@H](Cc2ccncc2)NC1=O [SEQ ID NO. 196] (cyclo([4Pal][Pip(5R-OH)]W[dHyp]N[Phe(4-COOH)][Trp(7-Cl)][αMeS][Phe(4-CONH2)][Phe(4-CONH2)][Sar][Trp(βS-Me,7-OMe)][X1][Nle])) | 90
6 | CCCC[C@@H]1NC(=O)[C@@H]2CC[C@@H](C2)NC(=O)[C@H]([C@@H](C)c2c[nH]c3c(OC)cccc23)NC(=O)CN(C)C(=O)[C@H](Cc2cccc(C(N)=O)c2)NC(=O)[C@H](Cc2ccc(C(=O)O)cc2)NC(=O)[C@](C)(CO)NC(=O)[C@H](Cc2c[nH]c3c(Cl)cccc23)NC(=O)[C@H](Cc2ccncc2)NC(=O)[C@H](CC(N)=O)NC(=O)[C@H](CCC(=O)O)N(C)C(=O)[C@H](Cc2c[nH]c3ccccc23)NC(=O)[C@@H]2CCCCN2C(=O)[C@H](Cc2ccncc2)NC1=O [SEQ ID NO. 221] (cyclo([4Pal][Pip]W[NMeE]N[4Pal][Trp(7-Cl)][αMeS][Phe(4-COOH)][Phe(3-CONH2)][Sar][Trp(βS-Me,7-OMe)][X1][Nle])) | 310
7 | CCCC[C@@H]1NC(=O)[C@@H]2CC[C@@H](C2)NC(=O)[C@H]([C@@H](C)c2c[nH]c3c(OC)cccc23)NC(=O)CN(C)C(=O)[C@H](Cc2ccc(C(N)=O)cc2)NC(=O)[C@H](Cc2ccc(C(N)=O)cc2)NC(=O)[C@](C)(CO)NC(=O)[C@H](Cc2c[nH]c3c(C#N)cccc23)NC(=O)[C@H](Cc2ccc(C(=O)O)cc2)NC(=O)[C@H](CC(N)=O)NC(=O)[C@H]2C[C@H](O)CN2C(=O)[C@H](Cc2c[nH]c3ncccc23)NC(=O)[C@@H]2CC[C@@H](O)CN2C(=O)[C@H](Cc2ccncc2)NC1=O [SEQ ID NO. 254] (cyclo([4Pal][Pip(5R-OH)][Trp(7-aza)][dHyp]N[Phe(4-COOH)][Trp(7-CN)][αMeS][Phe(4-CONH2)][Phe(4-CONH2)][Sar][Trp(βS-Me,7-OMe)][X1][Nle])) | 60

Same assay, conditions: displacement of biotinylated peptide SEQ ID NO. 1 from sTNFR1; weaker binders, 10 pts titration, 4-parameter logistic model; read-out: TR-FRET, IC50

Row | SMILES | IC50 [pM]
8 | CCCC[C@@H]1NC(=O)CSC[C@@H](C(N)=O)NC(=O)[C@H]([C@@H](C)c2c[nH]c3c(OC)cccc23)NC(=O)CN(C)C(=O)[C@H](Cc2ccc(O)cc2)NC(=O)[C@H](Cc2ccc(C(=O)O)cc2)NC(=O)[C@](C)(CO)NC(=O)[C@H](Cc2c[nH]c3c(Cl)cccc23)NC(=O)[C@H](Cc2ccncc2)NC(=O)[C@H](CC(N)=O)NC(=O)[C@H](C)N(CC)C(=O)[C@H](Cc2c[nH]c3ccccc23)NC(=O)[C@@H]2COC(C)(C)CN2C(=O)[C@H](Cc2ccncc2)NC1=O [SEQ ID NO. 183] ({CH2CO}-[Nle][4Pal][Morpholine(3S-CO,6,6-Me2)]W[NEtAla]N[4Pal][Trp(7-Cl)][αMeS][Phe(4-COOH)]Y[Sar][Trp(βS-Me,7-OMe)]C-NH2; thioether N-14) | 500
9 | C[C@@H](c1c[nH]c2ccccc12)[C@@H]1NC(=O)CN(C)C(=O)[C@H](Cc2ccc(CN)cc2)NC(=O)[C@H](Cc2ccc(C(=O)O)cc2)NC(=O)[C@](C)(CO)NC(=O)[C@H](Cc2ccc3ccccc3c2)NC(=O)[C@H](Cc2ccc(CN)cc2)NC(=O)[C@H](CC(N)=O)NC(=O)[C@H]2CCCN2C(=O)[C@H]([C@@H](C)c2c[nH]c3ccccc23)NC(=O)[C@H](CO)NC(=O)[C@H](Cc2ccc(CN)cc2)NC(=O)[C@H](CCCNC(N)=O)NC(=O)CSC[C@@H](C(N)=O)NC1=O [SEQ ID NO. 206] ({CH2CO}-[Cit][Phe(4-CH2NH2)]S[Trp(βS-Me)][dP]N[Phe(4-CH2NH2)][2Nal][αMeS][Phe(4-COOH)][Phe(4-CH2NH2)][Sar][Trp(βS-Me)]C-NH2; thioether N-14) | 26000
